Read-outs that look alike come from different tables or passages of the source.
Assays:
[1] = system: soybean (Var. Clark); assay: greenhouse growth regulator test on soybean (Table I); type: in vivo; settings: two weeks after application; for Injury (0-10): 0-10 scale, 0 = no effect, 10 = complete kill; for pest or weed control / pest or weed control at 2241.7 g/ha: Glycine max, foliar, 336 h, relative to control, read-out: Height (% inhib.)
Excerpt: Limited greenhouse experiments shown that there is promotion of lateral bud growth when compounds are applied at higher concentrations and earlier timings and an increase in soybean pod numbers at lower rates applied just prior to or at the flowering stage. […] Three parameters are reported in Table I to indicate the general spectrum of activity for each evaluated compound including the propensity for releasing lateral bud growth in soybeans. These are: (a) plant height measured as percent inhibition relative to the control; (b) the number of lateral buds per plant; and (c) phytotoxic injury on a scale of 0 to 10 (10 being maximum injury). Sampling compounds were evaluated in the greenhouse in a special growth regulator test. Four to five soybean seeds (Var. Clark) were planted in 4-inch pots with a humus-soil mixture. Two weeks after planting, two uniform plants were selected from each pot for treatment. The candidate compounds were dissolved in acetone-water (1:1), and applied as a foliar spray in a carrier volume of 50 gallons per acre, using a moving belt sprayer at a rate of 1/4, 1/2 and 2 lbs/acre. Six plants were used for each treatment. Two weeks after application, the number of laterals per plant, plant injury (0-10 scale; 0 = no effect, 10 = complete kill,) and the height of each plant were recorded. Untreated plants were used as controls.

[2] = system: soybean (Var. Clark); assay: effect of haloaniline derivatives on soybean yields at different rates and stages of growth (Table VIII); type: in vivo
Experimental: a further experiment was conducted to determine the effect of selected haloaniline derivatives on soybean yields at different rates of application, and at differing stages of growth.
Soybeans (Var. Clark) were planted at the rate of 4 seeds per 6 inch pot in a medium of 1 part humus and 2 parts soil. Two weeks after planting two uniform plants were selected from each pot for treatment. The soybeans were treated weekly with a high analysis liquid fertilizer. The candidate compounds were dissolved in acetone-water (1:1) and applied at three timings as a foliar spray in a carrier volume of 50 gallons per acre using a moving belt sprayer at rates ranging from 0.1 to two lbs. per acre. Six plants were used for each treatment. The beans were harvested eight weeks after the third treatment and the seeds and pods per plant were counted.

| Structure (SMILES) | No. Laterals per plant ([1]; 1/2 lbs/acre foliar spray) | Injury (0-10) ([1]; 1/2 lbs/acre) | No. Laterals per plant ([1]; 1/4 lbs/acre foliar spray) | Injury (0-10) ([1]; 1/4 lbs/acre) | No. Laterals per plant ([1]; 2 lbs/acre foliar spray) | Injury (0-10) ([1]; 2 lbs/acre) | pest or weed control ([1]; 1/2 lbs/acre foliar spray) [%] | pest or weed control ([1]; 1/4 lbs/acre foliar spray) [%] | pest or weed control at 2241.7 g/ha ([1]; 2 lbs/acre foliar spray) [%] | Pods per Plant ([2]; 2nd treatment, 0.10 lbs./A) | Seeds per Plant ([2]; 2nd treatment, 0.10 lbs./A) | Seeds per Pod ([2]; 2nd treatment, 0.10 lbs./A) | Pods per Plant ([2]; 2nd treatment, 0.30 lbs./A) | Seeds per Plant ([2]; 2nd treatment, 0.30 lbs./A) | Seeds per Pod ([2]; 2nd treatment, 0.30 lbs./A) | Pods per Plant ([2]; 2nd treatment, 0.90 lbs./A) | Seeds per Plant ([2]; 2nd treatment, 0.90 lbs./A) | Seeds per Pod ([2]; 2nd treatment, 0.90 lbs./A) | Pods per Plant ([2]; 3rd treatment, 0.10 lbs./A) | Seeds per Plant ([2]; 3rd treatment, 0.10 lbs./A) | further results |
| --- | --- | --- | --- | --- | --- | --- | --- | --- | --- | --- | --- | --- | --- | --- | --- | --- | --- | --- | --- | --- | --- |
| Clc1cc(Cl)cc(N=Cc2ccccc2)c1 [IV, 3,5-dichloro-N-benzylideneaniline] | 2 | 0 | 3 | 0 | 5 | 1 | 5 | 7 | 17 | 8.3 | 8.3 | 1.0 | 0.7 | 1.0 | 1.5 | 2.7 | 3.2 | 1.2 | 16.5 | 37.0 | Seeds per Pod ([2]; 3rd treatment, 0.10 lbs./A): 2.2; Pods per Plant ([2]; 3rd treatment, 0.30 lbs./A): 13.2; Seeds per Plant ([2]; 3rd treatment, 0.30 lbs./A): 23.3; Seeds per Pod ([2]; 3rd treatment, 0.30 lbs./A): 1.7; Pods per Plant ([2]; 3rd treatment, 0.90 lbs./A): 19.3; Seeds per Plant ([2]; 3rd treatment, 0.90 lbs./A): 37.7; Seeds per Pod ([2]; 3rd treatment, 0.90 lbs./A): 1.9 |
| Clc1ccc(N=Cc2ccccc2)cc1Cl [XIII, 3,4-Dichloro-N-benzylideneaniline] | 4 | 0 | 2 | 1 | 3 | 4 | 9 | 17 | 19 | 13.7 | 20.5 | 1.5 | 12.0 | 17.7 | 1.5 | 5.2 | 6.7 | 1.3 | 5.5 | 7.8 | Seeds per Pod ([2]; 3rd treatment, 0.10 lbs./A): 1.4; Pods per Plant ([2]; 3rd treatment, 0.30 lbs./A): 11.0; Seeds per Plant ([2]; 3rd treatment, 0.30 lbs./A): 17.2; Seeds per Pod ([2]; 3rd treatment, 0.30 lbs./A): 1.6; Pods per Plant ([2]; 3rd treatment, 0.90 lbs./A): 9.3; Seeds per Plant ([2]; 3rd treatment, 0.90 lbs./A): 16.7; Seeds per Pod ([2]; 3rd treatment, 0.90 lbs./A): 1.8 |
| O=CNc1cc(Cl)cc(Cl)c1 [XVIII, 3',5'-dichloroformanilide] | 5 | 1 | 4 | 0 | 5 | 1 | 11 | 3 | 15 | 16.2 | 17.5 | 1.1 | 9.2 | 6.3 | 0.7 | 0.5 | 0.5 | 1.0 | 9.3 | 15.2 | Pods per Plant ([2]; 1st treatment, 0.25 lbs./A): 1.4; Seeds per Plant ([2]; 1st treatment, 0.25 lbs./A): 0.0; Seeds per Pod ([2]; 1st treatment, 0.25 lbs./A): 0.0; Pods per Plant ([2]; 1st treatment, 0.50 lbs./A): 0.8; Seeds per Plant ([2]; 1st treatment, 0.50 lbs./A): 1.0; Seeds per Pod ([2]; 1st treatment, 0.50 lbs./A): 1.3; Pods per Plant ([2]; 1st treatment, 1.00 lbs./A): 0.0; Seeds per Plant ([2]; 1st treatment, 1.00 lbs./A): 0.0; Seeds per Pod ([2]; 1st treatment, 1.00 lbs./A): 0.0; Pods per Plant ([2]; 1st treatment, 2.00 lbs./A): 0.0; Seeds per Plant ([2]; 1st treatment, 2.00 lbs./A): 0.0; Seeds per Pod ([2]; 1st treatment, 2.00 lbs./A): 0.0; Seeds per Pod ([2]; 3rd treatment, 0.10 lbs./A): 1.6; Pods per Plant ([2]; 3rd treatment, 0.30 lbs./A): 5.2; Seeds per Plant ([2]; 3rd treatment, 0.30 lbs./A): 10.5; Seeds per Pod ([2]; 3rd treatment, 0.30 lbs./A): 2.0; Pods per Plant ([2]; 3rd treatment, 0.90 lbs./A): 5.2; Seeds per Plant ([2]; 3rd treatment, 0.90 lbs./A): 9.5; Seeds per Pod ([2]; 3rd treatment, 0.90 lbs./A): 1.8 |
